In ChEMBL document CHEMBL5247595, “Synthesis, antitumor, and apoptosis-inducing activities of novel 5-arylidenethiazolidine-2,4-dione derivatives: Histone deacetylases inhibitory activity and molecular docking study” (Eur J Med Chem, 2022):
Each block holds one compound with its values, some of them ahead of it.

Assays:
Histone deacetylase 2 = Histone deacetylase 2 (Homo sapiens, UniProt Q92769); test: Inhibition of HDAC2 (unknown origin) by ELISA assay
HeLa = test: cells; type: functional, cell-based; conditions: Homo sapiens, 48 h
Description: Cytotoxicity against human HeLa cells assessed as inhibition of cell growth measured after 48 hrs by MTT assay

HepG2 [1] = test: cells; type: functional, cell-based; conditions: Homo sapiens, HepG2, 48 h
Description: Cytotoxicity against human HepG2 cells assessed as inhibition of cell growth measured after 48 hrs by MTT assay

[2] = target: T1, Protein deacetylase HDAC6 (Homo sapiens, UniProt Q9UBN7); test: Inhibition of HDAC6 (unknown origin) by ELISA assay
T1 sequence (Q9UBN7 whole entry): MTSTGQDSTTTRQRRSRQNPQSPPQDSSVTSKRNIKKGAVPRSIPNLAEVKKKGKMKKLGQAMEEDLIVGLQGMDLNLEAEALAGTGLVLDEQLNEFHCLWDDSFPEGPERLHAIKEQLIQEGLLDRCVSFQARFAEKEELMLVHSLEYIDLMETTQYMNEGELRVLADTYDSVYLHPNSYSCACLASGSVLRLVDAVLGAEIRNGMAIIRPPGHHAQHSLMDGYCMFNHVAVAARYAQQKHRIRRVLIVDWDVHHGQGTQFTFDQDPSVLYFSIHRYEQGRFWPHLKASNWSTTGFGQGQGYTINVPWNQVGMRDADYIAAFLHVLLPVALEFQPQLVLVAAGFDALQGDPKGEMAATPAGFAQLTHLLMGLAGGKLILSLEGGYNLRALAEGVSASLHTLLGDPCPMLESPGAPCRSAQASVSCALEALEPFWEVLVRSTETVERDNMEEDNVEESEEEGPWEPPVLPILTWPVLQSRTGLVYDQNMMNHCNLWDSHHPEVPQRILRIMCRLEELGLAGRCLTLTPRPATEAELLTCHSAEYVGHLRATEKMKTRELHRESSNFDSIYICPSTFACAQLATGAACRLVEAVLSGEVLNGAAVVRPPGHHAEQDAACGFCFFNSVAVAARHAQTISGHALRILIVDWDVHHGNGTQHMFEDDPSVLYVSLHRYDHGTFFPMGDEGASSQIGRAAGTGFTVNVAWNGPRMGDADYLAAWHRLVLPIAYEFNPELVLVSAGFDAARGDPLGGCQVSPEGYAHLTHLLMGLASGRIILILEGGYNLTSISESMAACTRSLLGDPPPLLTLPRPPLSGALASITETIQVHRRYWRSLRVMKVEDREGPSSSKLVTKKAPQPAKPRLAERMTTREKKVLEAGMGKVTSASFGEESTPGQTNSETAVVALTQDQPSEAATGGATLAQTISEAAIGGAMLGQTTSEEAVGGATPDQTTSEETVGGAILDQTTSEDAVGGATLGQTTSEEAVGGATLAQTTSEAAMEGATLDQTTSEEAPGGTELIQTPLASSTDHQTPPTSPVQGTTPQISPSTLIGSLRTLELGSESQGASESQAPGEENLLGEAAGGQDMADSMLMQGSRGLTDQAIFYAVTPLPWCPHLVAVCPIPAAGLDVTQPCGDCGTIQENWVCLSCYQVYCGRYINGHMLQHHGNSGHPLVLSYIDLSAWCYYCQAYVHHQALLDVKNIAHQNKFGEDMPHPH

MCF7 [3] = test: cells; type: functional, cell-based; conditions: Homo sapiens, MCF7, 48 h
Description: Cytotoxicity against human MCF7 cells assessed as inhibition of cell growth measured after 48 hrs by MTT assay

HCT-116 [4] = test: cells; type: functional, cell-based; conditions: Homo sapiens, HCT-116, 48 h
Description: Cytotoxicity against human HCT-116 cells assessed as inhibition of cell growth measured after 48 hrs by MTT assay

Histone deacetylase 1 = Histone deacetylase 1 (Homo sapiens, UniProt Q13547); test: Inhibition of HDAC1 (unknown origin) by ELISA assay
Histone deacetylase 1, sequence (Q13547 whole entry): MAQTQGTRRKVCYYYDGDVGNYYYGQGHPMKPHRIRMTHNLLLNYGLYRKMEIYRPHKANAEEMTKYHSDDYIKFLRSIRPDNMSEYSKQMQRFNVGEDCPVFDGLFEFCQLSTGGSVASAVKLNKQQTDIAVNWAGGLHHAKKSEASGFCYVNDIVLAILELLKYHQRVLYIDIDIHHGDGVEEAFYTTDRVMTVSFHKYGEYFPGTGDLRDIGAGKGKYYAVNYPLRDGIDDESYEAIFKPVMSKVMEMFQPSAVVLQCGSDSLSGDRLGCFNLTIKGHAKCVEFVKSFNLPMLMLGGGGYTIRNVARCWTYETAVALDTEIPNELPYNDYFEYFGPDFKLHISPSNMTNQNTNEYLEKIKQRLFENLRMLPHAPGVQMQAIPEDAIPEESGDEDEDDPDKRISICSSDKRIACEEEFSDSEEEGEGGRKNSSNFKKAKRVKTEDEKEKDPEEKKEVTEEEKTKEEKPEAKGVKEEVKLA

in vitro = conditions: human, WI-38 cells
Description: Cytotoxicity against human WI-38 cells assessed as inhibition of cell growth measured after 48 hrs by MTT assay

Histone deacetylase 8 = target: T2, Histone deacetylase 8 (Homo sapiens, UniProt Q9BY41); test: Inhibition of HDAC8 (unknown origin) by ELISA assay
T2 sequence (Q9BY41 whole entry): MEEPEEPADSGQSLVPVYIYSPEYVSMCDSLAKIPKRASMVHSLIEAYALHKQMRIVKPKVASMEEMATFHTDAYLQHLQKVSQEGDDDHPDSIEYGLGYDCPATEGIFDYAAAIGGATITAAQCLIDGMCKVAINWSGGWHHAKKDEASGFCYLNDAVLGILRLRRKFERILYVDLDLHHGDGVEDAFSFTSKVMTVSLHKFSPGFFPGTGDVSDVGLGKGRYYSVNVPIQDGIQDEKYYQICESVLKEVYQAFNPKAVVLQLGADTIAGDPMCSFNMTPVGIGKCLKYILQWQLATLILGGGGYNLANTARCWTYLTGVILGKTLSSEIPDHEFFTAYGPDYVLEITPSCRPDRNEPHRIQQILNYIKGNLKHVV

PC-3 = test: Cytotoxicity against human PC-3 cells assessed as inhibition of cell growth measured after 48 hrs by MTT assay; type: functional, cell-based; conditions: PC-3, 48 h
HCT-116 [5] = test: Induction of cell cycle arrest in human HCT-116 cells assessed as accumulation at sub-G1 phase by PI-staining based flow cytometry (reference value: 12%); type: functional
HepG2 [6] = test: Induction of cell cycle arrest in human HepG2 cells assessed as accumulation at S phase by PI-staining based flow cytometry (reference value: 5.8%); type: functional
MCF7 [7] = test: Induction of cell cycle arrest in human MCF7 cells assessed as accumulation at S phase by PI-staining based flow cytometry (reference value: 6.3%); type: functional
HCT-116 [8] = test: Induction of cell cycle arrest in human HCT-116 cells assessed as accumulation at S phase by PI-staining based flow cytometry (reference value: 7.1%); type: functional
HCT-116 [9] = test: Induction of apoptosis in human HCT-116 cells assessed as fold increase in caspases-7 expression by ELISA assay; type: functional
HepG2 [10] = test: Induction of cell cycle arrest in human HepG2 cells assessed as accumulation at sub-G1 phase by PI-staining based flow cytometry (reference value: 12.6%); type: functional
MCF7 [11] = test: Induction of apoptosis in human MCF7 cells assessed as fold increase in caspases-3 expression by ELISA assay; type: functional
MCF7 [12] = test: Induction of cell cycle arrest in human MCF7 cells assessed as accumulation at G2/M phase by PI-staining based flow cytometry (reference value: 35.3%); type: functional
HepG2 [13] = test: Induction of apoptosis in human HepG2 cells assessed as fold increase in BAX expression by ELISA assay; type: functional
MCF7 [14] = test: Induction of apoptosis in human MCF7 cells assessed as fold increase in caspases-7 expression by ELISA assay; type: functional
HepG2 [15] = test: Induction of apoptosis in human HepG2 cells assessed as fold increase in caspases-7 expression by ELISA assay; type: functional
HCT-116 [16] = test: Induction of apoptosis in human HCT-116 cells assessed as fold increase in BAX expression by ELISA assay; type: functional
HCT-116 [17] = test: Induction of cell cycle arrest in human HCT-116 cells assessed as accumulation at G0/G1 phase by PI-staining based flow cytometry (reference value: 47%); type: functional
HCT-116 [18] = test: Induction of apoptosis in human HCT-116 cells assessed as fold increase in caspases-3 expression by ELISA assay; type: functional
HepG2 [19] = test: Induction of cell cycle arrest in human HepG2 cells assessed as accumulation at G2/M phase by PI-staining based flow cytometry (reference value: 41.5%); type: functional
HCT-116 [20] = test: Induction of cell cycle arrest in human HCT-116 cells assessed as accumulation at G2/M phase by PI-staining based flow cytometry (reference value: 29.2%); type: functional
MCF7 [21] = test: Induction of cell cycle arrest in human MCF7 cells assessed as accumulation at sub-G1 phase by PI-staining based flow cytometry (reference value: 13.2%); type: functional
HepG2 [22] = test: Induction of apoptosis in human HepG2 cells assessed as fold increase in caspases-3 expression by ELISA assay; type: functional
MCF7 [23] = test: Induction of cell cycle arrest in human MCF7 cells assessed as accumulation at G0/G1 phase by PI-staining based flow cytometry (reference value: 40.8%); type: functional
MCF7 [24] = test: Induction of apoptosis in human MCF7 cells assessed as fold increase in BAX expression by ELISA assay; type: functional
HepG2 [25] = test: Induction of cell cycle arrest in human HepG2 cells assessed as accumulation at G0/G1 phase by PI-staining based flow cytometry (reference value: 35.2%); type: functional

Histone deacetylase 2, sequence (Q92769 whole entry): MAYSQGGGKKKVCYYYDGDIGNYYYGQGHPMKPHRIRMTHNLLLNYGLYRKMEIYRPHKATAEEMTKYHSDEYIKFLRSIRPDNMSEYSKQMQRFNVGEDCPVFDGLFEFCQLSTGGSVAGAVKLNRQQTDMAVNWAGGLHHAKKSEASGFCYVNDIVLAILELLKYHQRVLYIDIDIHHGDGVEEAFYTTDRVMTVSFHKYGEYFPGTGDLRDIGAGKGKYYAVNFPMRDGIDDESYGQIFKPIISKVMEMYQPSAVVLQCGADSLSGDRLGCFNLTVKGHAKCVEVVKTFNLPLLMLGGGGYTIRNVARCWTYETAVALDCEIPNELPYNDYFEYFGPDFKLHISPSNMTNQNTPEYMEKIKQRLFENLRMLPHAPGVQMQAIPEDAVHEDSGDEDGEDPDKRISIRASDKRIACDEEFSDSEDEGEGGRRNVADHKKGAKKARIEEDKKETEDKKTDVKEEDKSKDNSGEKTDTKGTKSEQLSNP

SMILES: Cc1c(NC(=O)NCCN2C(=O)S/C(=C\c3ccc(Br)cc3)C2=O)c(=O)n(-c2ccccc2)n1C
IC50 (HeLa): 72.6 µM
IC50 (HepG2 [1]): 52.3 µM
IC50 (MCF7 [3]): 58.1 µM
IC50 (HCT-116 [4]): 78.1 µM
IC50 at 48 h (in vitro): > 100 µM
IC50 (PC-3): > 100 µM

SMILES: Cc1c(NC(=O)CN2C(=O)S/C(=C\c3ccc([N+](=O)[O-])cc3)C2=O)c(=O)n(-c2ccccc2)n1C
IC50 (HeLa): 77.2 µM
IC50 (HepG2 [1]): 84.3 µM
IC50 (MCF7 [3]): 82.4 µM
IC50 (HCT-116 [4]): 91.3 µM
IC50 at 48 h (in vitro): 43.8 µM
IC50 (PC-3): > 100 µM

SMILES: Cc1c(NC(=O)CN2C(=O)S/C(=C\c3ccc(Br)cc3)C2=O)c(=O)n(-c2ccccc2)n1C
IC50 (Histone deacetylase 2): 3.85 µM
IC50 (HeLa): 9.41 µM
IC50 (HepG2 [1]): 19.2 µM
IC50 [2]: 1.63 µM
IC50 (MCF7 [3]): 24.1 µM
IC50 (HCT-116 [4]): 7.84 µM
IC50 (Histone deacetylase 1): 0.458 µM
IC50 at 48 h (in vitro): 66.7 µM
IC50 (Histone deacetylase 8): 1.09 µM
IC50 (PC-3): 17.1 µM

SMILES: O=C(CCCCCCC(=O)Nc1ccccc1)NO [VORINOSTAT]
IC50 (PC-3): 3.6 µM

More lines, main results first:

IC50 (Histone deacetylase 2): 0.526 µM
IC50 (HeLa): 37.7 µM
IC50 (HepG2 [1]): 14 µM
IC50 [2]: 0.144 µM
IC50 (MCF7 [3]): 18.6 µM
IC50 (HCT-116 [4]): 44.8 µM
IC50 (Histone deacetylase 1): 0.16 µM
IC50 at 48 h (in vitro): 76.4 µM
IC50 (Histone deacetylase 8): 0.245 µM
SMILES: Cc1c(NC(=O)NCCN2C(=O)S/C(=C\c3ccc([N+](=O)[O-])cc3)C2=O)c(=O)n(-c2ccccc2)n1C
IC50 (PC-3): 69.3 µM

IC50 (Histone deacetylase 2): 0.834 µM
IC50 (HeLa): 6.18 µM
IC50 (HepG2 [1]): 8.37 µM
IC50 [2]: 0.258 µM
IC50 (MCF7 [3]): 5.14 µM
IC50 (HCT-116 [4]): 3.16 µM
IC50 (Histone deacetylase 1): 0.281 µM
IC50 at 48 h (in vitro): 34.5 µM
IC50 (Histone deacetylase 8): 0.517 µM
SMILES: COc1ccc(/C=C2\SC(=O)N(CCNC(=O)Nc3c(C)n(C)n(-c4ccccc4)c3=O)C2=O)cc1
Activity (HCT-116 [5]): 39.5%
Activity (HepG2 [6]): 1.6%
Activity (MCF7 [7]): 4.8%
Activity (HCT-116 [8]): 1.6%
fold change (FC) (HCT-116 [9]): 3.7
Activity (HepG2 [10]): 43.4%
fold change (FC) (MCF7 [11]): 5.2
Activity (MCF7 [12]): 0.2%
fold change (FC) (HepG2 [13]): 13.13
fold change (FC) (MCF7 [14]): 6.6
fold change (FC) (HepG2 [15]): 9.1
fold change (FC) (HCT-116 [16]): 4.9
Activity (HCT-116 [17]): 55.2%
fold change (FC) (HCT-116 [18]): 3.9
Activity (HepG2 [19]): 0%
Activity (HCT-116 [20]): 0%
Activity (MCF7 [21]): 31.7%
fold change (FC) (HepG2 [22]): 5.2
Activity (MCF7 [23]): 60.6%
fold change (FC) (MCF7 [24]): 7.013
Activity (HepG2 [25]): 50.6%
IC50 (PC-3): 13.9 µM
